Mutagenic call data for five compounds are collected here from PubChem BioAssay AID1259407 (Chemical Carcinogenesis Research Information System (CCRIS), 2018).

Active and inactive are the calls of the source. No rule for the calls is given here.

For the series, the system named is CCRIS mutagenicity, Ames/micronucleus/aberration tests. Briefly: CCRIS mutagenicity studies.
Where [1] appears, read: Test System: AMES SALMONELLA TYPHIMURIUM, Strain/Indicator: TA98, Metabolic Activation: NONE, Method: PREINCUBATION
[2] abbreviates: Test System: AMES SALMONELLA TYPHIMURIUM, Strain/Indicator: TA100, Metabolic Activation: NONE, Method: PREINCUBATION

On to `CCCCCCC(=O)O`, for which the mutagenic call is, setting by setting: (Test System: AMES SALMONELLA TYPHIMURIUM, Strain/Indicator: TA97, Metabolic Activation: HAMSTER, LIVER, S-9, AROCLOR 1254 (10%), Method: PREINCUBATION) “inactive; negative”; (Test System: AMES SALMONELLA TYPHIMURIUM, Strain/Indicator: TA97, Metabolic Activation: HAMSTER, LIVER, S-9, AROCLOR 1254 (30%), Method: PREINCUBATION) “inactive; negative”; (Test System: AMES SALMONELLA TYPHIMURIUM, Strain/Indicator: TA97, Metabolic Activation: NONE, Method: PREINCUBATION) “inactive; negative”; (Test System: AMES SALMONELLA TYPHIMURIUM, Strain/Indicator: TA97, Metabolic Activation: RAT, LIVER, S-9, AROCLOR 1254 (10%), Method: PREINCUBATION) “inactive; negative”; (Test System: AMES SALMONELLA TYPHIMURIUM, Strain/Indicator: TA97, Metabolic Activation: RAT, LIVER, S-9, AROCLOR 1254 (30%), Method: PREINCUBATION) “inactive; negative”; (Test System: AMES SALMONELLA TYPHIMURIUM, Strain/Indicator: TA98, Metabolic Activation: HAMSTER, LIVER, S-9, AROCLOR 1254 (10%), Method: PREINCUBATION) “inactive; negative”. The mutagenic call is, setting by setting: (Test System: AMES SALMONELLA TYPHIMURIUM, Strain/Indicator: TA98, Metabolic Activation: HAMSTER, LIVER, S-9, AROCLOR 1254 (30%), Method: PREINCUBATION) “inactive; negative”; under setting [1], “inactive; negative”; (Test System: AMES SALMONELLA TYPHIMURIUM, Strain/Indicator: TA98, Metabolic Activation: RAT, LIVER, S-9, AROCLOR 1254 (10%), Method: PREINCUBATION) “inactive; negative”; (Test System: AMES SALMONELLA TYPHIMURIUM, Strain/Indicator: TA98, Metabolic Activation: RAT, LIVER, S-9, AROCLOR 1254 (30%), Method: PREINCUBATION) “inactive; negative”; (Test System: AMES SALMONELLA TYPHIMURIUM, Strain/Indicator: TA100, Metabolic Activation: HAMSTER, LIVER, S-9, AROCLOR 1254 (10%), Method: PREINCUBATION) “inactive; negative”; (Test System: AMES SALMONELLA TYPHIMURIUM, Strain/Indicator: TA100, Metabolic Activation: HAMSTER, LIVER, S-9, AROCLOR 1254 (30%), Method: PREINCUBATION) “inactive; negative”. Further, the mutagenic call is, setting by setting: under setting [2], “inactive; negative”; (Test System: AMES SALMONELLA TYPHIMURIUM, Strain/Indicator: TA100, Metabolic Activation: RAT, LIVER, S-9, AROCLOR 1254 (10%), Method: PREINCUBATION) “inactive; negative”; (Test System: AMES SALMONELLA TYPHIMURIUM, Strain/Indicator: TA100, Metabolic Activation: RAT, LIVER, S-9, AROCLOR 1254 (30%), Method: PREINCUBATION) “inactive; negative”; (Test System: AMES SALMONELLA TYPHIMURIUM, Strain/Indicator: TA1535, Metabolic Activation: HAMSTER, LIVER, S-9, AROCLOR 1254 (10%), Method: PREINCUBATION) “inactive; negative”; (Test System: AMES SALMONELLA TYPHIMURIUM, Strain/Indicator: TA1535, Metabolic Activation: HAMSTER, LIVER, S-9, AROCLOR 1254 (30%), Method: PREINCUBATION) “inactive; negative”; (Test System: AMES SALMONELLA TYPHIMURIUM, Strain/Indicator: TA1535, Metabolic Activation: NONE, Method: PREINCUBATION) “inactive; negative”. Further, the mutagenic call by setting is: (Test System: AMES SALMONELLA TYPHIMURIUM, Strain/Indicator: TA1535, Metabolic Activation: RAT, LIVER, S-9, AROCLOR 1254 (10%), Method: PREINCUBATION) “inactive; negative”; (Test System: AMES SALMONELLA TYPHIMURIUM, Strain/Indicator: TA1535, Metabolic Activation: RAT, LIVER, S-9, AROCLOR 1254 (30%), Method: PREINCUBATION) “inactive; negative”; (Test System: AMES SALMONELLA TYPHIMURIUM, Strain/Indicator: TA1537, Metabolic Activation: HAMSTER, LIVER, S-9, AROCLOR 1254 (30%), Method: PREINCUBATION) “inactive; negative”; (Test System: AMES SALMONELLA TYPHIMURIUM, Strain/Indicator: TA1537, Metabolic Activation: NONE, Method: PREINCUBATION) “inactive; negative”; (Test System: AMES SALMONELLA TYPHIMURIUM, Strain/Indicator: TA1537, Metabolic Activation: RAT, LIVER, S-9, AROCLOR 1254 (30%), Method: PREINCUBATION) “inactive; negative”.
On to `CC(CO)[N+](=O)[O-]` (stereo not drawn), for which the mutagenic call under setting [1] was “inactive; negative”; the mutagenic call (Test System: AMES SALMONELLA TYPHIMURIUM, Strain/Indicator: TA98, Metabolic Activation: RAT, LIVER, S-9, AROCLOR, Method: PREINCUBATION) was “inactive; negative”; the mutagenic call under setting [2] is “inactive; negative”; the mutagenic call (Test System: AMES SALMONELLA TYPHIMURIUM, Strain/Indicator: TA100, Metabolic Activation: RAT, LIVER, S-9, AROCLOR, Method: PREINCUBATION) was “inactive; negative”; the mutagenic call (Test System: AMES SALMONELLA TYPHIMURIUM, Strain/Indicator: TA102, Metabolic Activation: NONE, Method: PREINCUBATION) was “inactive; negative”; the mutagenic call (Test System: AMES SALMONELLA TYPHIMURIUM, Strain/Indicator: TA102, Metabolic Activation: RAT, LIVER, S-9, AROCLOR, Method: PREINCUBATION) is “inactive; negative”.
For `CC(C)=CC1C(C(=O)O)C1(C)C` (stereo not drawn), the mutagenic call is “inactive; negative” (Test System: AMES SALMONELLA TYPHIMURIUM, Strain/Indicator: TA98, Metabolic Activation: NONE, Method: STANDARD PLATE); “inactive; negative” (Test System: AMES SALMONELLA TYPHIMURIUM, Strain/Indicator: TA98, Metabolic Activation: RAT, LIVER, S-9, AROCLOR 1254, Method: STANDARD PLATE); “inactive; negative” (Test System: AMES SALMONELLA TYPHIMURIUM, Strain/Indicator: TA100, Metabolic Activation: NONE, Method: STANDARD PLATE); “inactive; negative” (Test System: AMES SALMONELLA TYPHIMURIUM, Strain/Indicator: TA100, Metabolic Activation: RAT, LIVER, S-9, AROCLOR 1254, Method: STANDARD PLATE); “inactive; negative” (Test System: AMES SALMONELLA TYPHIMURIUM, Strain/Indicator: TA1535, Metabolic Activation: NONE, Method: STANDARD PLATE); “inactive; negative” (Test System: AMES SALMONELLA TYPHIMURIUM, Strain/Indicator: TA1535, Metabolic Activation: RAT, LIVER, S-9, AROCLOR 1254, Method: STANDARD PLATE). Further, the mutagenic call is, setting by setting: (Test System: AMES SALMONELLA TYPHIMURIUM, Strain/Indicator: TA1537, Metabolic Activation: NONE, Method: STANDARD PLATE) “inactive; negative”; (Test System: AMES SALMONELLA TYPHIMURIUM, Strain/Indicator: TA1537, Metabolic Activation: RAT, LIVER, S-9, AROCLOR 1254, Method: STANDARD PLATE) “inactive; negative”; (Test System: E. COLI, Strain/Indicator: WP2, Metabolic Activation: NONE, Method: STANDARD PLATE) “inactive; negative”; (Test System: E. COLI, Strain/Indicator: WP2, Metabolic Activation: RAT, LIVER, S-9, AROCLOR 1254, Method: STANDARD PLATE) “inactive; negative”.
On to `O=[N+]([O-])/C=C/c1ccc([N+](=O)[O-])o1`, for which the mutagenic call under setting [1] is “active; positive”.
With `[S]=[Co]`, the mutagenic call is “inactive; negative” (Test System: CHINESE HAMSTER G10, Strain/Indicator: G10 (GPT)/6-THIOGUANINE, Metabolic Activation: NONE); “active; positive” (Test System: CHINESE HAMSTER G12, Strain/Indicator: G12 (GPT)/6-THIOGUANINE, Metabolic Activation: NONE); “inactive; negative” (Test System: CHINESE HAMSTER V-79, Strain/Indicator: V-79 (HPRT)/6-THIOGUANINE, Metabolic Activation: NONE).
